Where “and” joins values, the source holds several entries; their conditions need not be identical. Equal values may be shown once.
Tests used:
[1] = target: T1, human Ether-à-go-go related gene (hERG) channel (Homo sapiens, UniProt Q12809); assay: hERG channel assay, manual patch-clamp; format: cell-based; details: HEK293 cells stably transfected with hERG, read-out: IC50, inhibition of hERG channel
T1 construct: host or cells: HEK293, stably transfected, expression induced with doxycycline
Method: calculated concentration on the dialysate side of the membrane; T0 = To t a l compound concentration as determined before dialysis. Good plasma stability should have a value of not less than 80% bound, and the recovery rate should be […]
9. In vivo pharmacokinetics study. Mouse and SD rat models were used to evaluate pharmacokinetic property of NHWD-870. NHWD-870 was administrated by either intravenous injection (IV, 1.75 mg/kg for mouse and 1 mg/kg for rat) or oral gavage (PO, 5 mg/kg) into mice or rats. Concentration of drugs in plasma, lung and tumor tissues were measured for the indicated time.
10. hERG channel assay. The potential inhibitory effect of NHWD-870 on human Ether-à-go-go related gene (hERG) channel was evaluated by manual patch-clamp system using the protocols described below. HEK293 cell line stably

[2] = tested on: TAMs (CD11b+F4/80+ cells) in A375 melanoma model; assay: FACS analysis of TAMs in A375 tumors; format: in vivo, mouse; details: day 21, FACS
Method: Flow cytometry analyses were performed using antibodies listed in Supplementary Table 8. For cell surface markers, mouse TAM suspensions were stained with mouse APC-CD45, FITC-CD11b, PE-F4/80 or APC-F4/80, CD68, and PE-CD206 antibodies for 15 min on ice. For Ki67 staining, cells were fixed in 4% paraformaldehyde and stained with FITC-Ki67. Isotype matching antibody served as the negative control. Flow cytometry was performed on a FACSCalibur (BD Biosciences). Data were analyzed with BD CellQuest Pro software version 5.1.
(a,b) Tumors from A375 tumor bearing mice in Figure 3e were harvested at day 21 and stained with anti-CD45, CD11b, F4/80, CD68 and Ki67 followed by FACS analysis. Shown are representative FACS plots (a ) and quantification of the percentage of CD11b+F4/80+ and CD11b+F4/80+CD68+Ki67+ cells (b). Data are presented as mean ± SEM from 5 different mice. p values were calculated using two-tailed, unpaired t tests.
**, p<0.01; ***, p<0.001. (c,d) Tumors from mice described in Figure 4e were harvested at day 45 and stained […]

A2780 tumors = assay: Orthotopic OC model with CSF1 overexpressing A2780 cells, NHWD-870 treatment; format: in vivo, mouse; parameters: Tumor weight (Fig.6k) / Ascitic fluid (Fig.6l): unit not given here
Method: Fig. 6 CSF1/CSF1R signaling is critical for the tumor inhibitory effects of NHWD-870 and CSF1 induced ovarian cancer growth depends on macrophages. a Number of TAMs after treatment with the indicated concentration of CSF1 for 48 h. Data are presented as mean ± SEM from three independent experiments. b–d Schematics of the experiments (b). A2780 cells (pre-treated with DMSO or 100 nM NHWD-870 for 48 h) were seeded into the top chamber (transwell size: 0.4 μm), and TAMs (Mac, 40,000 cells per 24-well) in medium with PBS or 10 ng/ml CSF1 (c), or 50 ng/ml IgG or anti-CSF1R antibodies (d), were seeded into the bottom chamber. Shown are quantification of TAMs (c, d). Data are presented as mean ± SEM from three independent experiments. e Representative western blot analysis of A2780 cells stably transfected with CSF1 or empty vector (EV). Selected from three independent experiments. f Schematics of the animal experiments using an orthotopic mouse OC model, established by intraperitoneally injecting 1 × 10^6 (g–j) or 2 × 10^6 (k–m) human A2780 cells overexpressing CSF1 or control into female recipient nude mice. Mice were then treated with/without liposomal clodronate (LC) for 45 days (g–j) or treated with/without NHWD-870 (PO, QD, 3 mg/kg) for 37 days (k–m). g Increased mouse body weight was measured at the indicated time points (day 0-45 after LC treatment). h–j Net tumor weight (h), ascitic fluid volumes (i) tumor implantations in peritoneum, omentum and pevic cavity (j) were measured at day 45 from LC treatment. k–m Net tumor weight (k), ascitic fluid volumes (l) tumor implantations in peritoneum, omentum and pevic cavity (m) were measured at day 37 after NHWD-870 treatment. For g–m, data are presented as mean ± SEM from five different mice. p values were calculated using two-tailed, unpaired t tests in this figure. n.s, not significant; *p < 0.05; **p < 0.01; and ***p < 0.001. Source data are provided as a Source Data file.
4–6 weeks old female BALB/c nude mice were used for most experiments, with the exception of 6–8 weeks old female C57BL/6 mice were used for B16F10 experiments, and 6–8 weeks old male BALB/c nude mice and SD rats were used for pharmacokinetic experiments. All animals were purchased from Shanghai SIPPR-Bk Lab Animal Co., Ltd. All animals were housed under a regimen of 12 h light/12 h dark cycles and specific pathogen-free conditions. 5×10^6 NCI-H526, ES-2, MDA-MB231, A2780, A375, B16F10, and TMD-8 cells (0.1 ml) were injected subcutaneously into female nude mice. The melanoma patient-derived xenograft model was derived from a human melanoma sample (BRAF, NARS and NF1 wild type, and p53 mutant) removed from a patient in Xiangya Hospital. Surgically removed tumor fragments were implanted subcutaneously into female NSG mice. When the tumors grew to ~1000 mm^3, they were harvested and cryopreserved or immediately re-implanted for expansion or experiments. Mouse body weight and tumor sizes were measured every 3 days. Once the tumors grew to 150–200 mm^3, mice were treated with the compounds as described in the Figures. 1 × 10^6 A2780 cells (1 ml) were injected into the abdominal cavity of nude mice. Ascitic volume and tumor weight were measured by an electronic balance. All the procedures were evaluated and approved by the Institutional Animal Care and Use Committee of Central South University and Yale University.

[3] = CSF-1 overexpressing A2780 cells

T1 sequence (Q12809 whole entry): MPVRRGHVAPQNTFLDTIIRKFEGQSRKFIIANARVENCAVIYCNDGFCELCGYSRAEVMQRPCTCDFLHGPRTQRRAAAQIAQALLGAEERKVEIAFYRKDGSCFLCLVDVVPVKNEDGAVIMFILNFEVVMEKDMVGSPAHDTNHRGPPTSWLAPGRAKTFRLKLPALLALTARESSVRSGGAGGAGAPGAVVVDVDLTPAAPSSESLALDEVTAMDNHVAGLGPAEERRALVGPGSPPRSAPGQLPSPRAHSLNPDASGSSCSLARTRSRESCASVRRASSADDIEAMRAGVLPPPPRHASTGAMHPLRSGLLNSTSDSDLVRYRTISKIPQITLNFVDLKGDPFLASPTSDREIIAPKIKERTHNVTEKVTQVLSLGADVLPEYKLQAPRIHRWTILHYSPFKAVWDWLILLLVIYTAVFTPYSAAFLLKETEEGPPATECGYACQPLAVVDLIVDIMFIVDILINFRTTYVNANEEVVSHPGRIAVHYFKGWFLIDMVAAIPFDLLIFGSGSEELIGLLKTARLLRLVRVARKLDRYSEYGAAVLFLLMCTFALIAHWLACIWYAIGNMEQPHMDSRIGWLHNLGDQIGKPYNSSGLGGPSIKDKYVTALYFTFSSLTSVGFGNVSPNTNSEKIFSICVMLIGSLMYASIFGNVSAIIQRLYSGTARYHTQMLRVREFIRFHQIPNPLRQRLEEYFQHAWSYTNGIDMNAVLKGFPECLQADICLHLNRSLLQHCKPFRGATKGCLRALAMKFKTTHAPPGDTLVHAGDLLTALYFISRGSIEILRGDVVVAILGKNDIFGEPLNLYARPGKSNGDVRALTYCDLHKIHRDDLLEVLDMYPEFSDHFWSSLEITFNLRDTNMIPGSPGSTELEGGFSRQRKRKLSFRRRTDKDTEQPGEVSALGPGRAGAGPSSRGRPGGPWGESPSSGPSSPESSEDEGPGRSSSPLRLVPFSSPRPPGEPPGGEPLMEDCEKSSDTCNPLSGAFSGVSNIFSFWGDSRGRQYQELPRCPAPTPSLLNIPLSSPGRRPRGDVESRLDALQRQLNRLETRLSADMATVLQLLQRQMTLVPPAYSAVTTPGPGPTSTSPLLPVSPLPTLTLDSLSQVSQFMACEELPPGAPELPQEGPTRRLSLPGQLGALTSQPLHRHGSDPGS

## Cc1nnn(C)c1-c1cnc2c3c4cnn(C)c4ccc3n([C@H](c3ccccc3)C3CCOCC3)c2c1 [NHWD-870]
[1]
  IC50: 5.4 µM
[2]
  number of TAMs (CD11b+F4/80+ cells) or proliferating TAMs: decreased the number of TAMs
A2780 tumors; [3]
  Ascitic fluid (Fig.6l): 2.5 and 3.8 and 4.1 and 3.5 and 2.1
  Tumor nodules, Omentum (Fig.6m): 8 and 13 and 10 and 16 and 12
  Tumor nodules, Pelvic (Fig.6m): 45 and 54 and 36 and 64 and 51
  Tumor weight (Fig.6k): 375 and 345 and 367 and 276 and 305
A2780 tumors; PO, QD, 3 mg/kg, 37 days
  tumor inhibitory effects on CSF1 overexpressing A2780 tumors: strongly mitigated the tumor inhibitory effects
